Laboratory results as given in ChEMBL document CHEMBL1629647, “Preclinical evaluation of GS-9160, a novel inhibitor of human immunodeficiency virus type 1 integrase” (Antimicrob Agents Chemother, 2009).

Columns and labels:
[1] = tested on: Human immunodeficiency virus 1; test: Antiviral activity against HIV1 3B infected in human MT-2 cells by two fold dilution method in presence of 10% FBS; type: functional, organism-based; conditions: Human immunodeficiency virus 1, 3B, MT2
[2] = Cytotoxicity against human SupT1 cells infected with HIV1 3B; type: cell-based, SUP-T1; conditions: SupT1 cells infected with HIV-1 3B
[3] = tested on: Human immunodeficiency virus 1; test: Selectivity ratio of EC50 for antiviral activity against HIV1 harboring E92Q mutation in catalytic core domain of integrase to EC50 for antiviral activity against wild-type HIV1 3B; type: functional
[4] = tested on: Human immunodeficiency virus 1; test: Selectivity ratio of EC50 for antiviral activity against HIV1 harboring N155S mutation in catalytic core domain of integrase to EC50 for antiviral activity against wild-type HIV1 3B; type: functional
[5] = tested on: Human immunodeficiency virus 1; test: Selectivity ratio of EC50 for antiviral activity against NNRTI-resistant HIV1 harboring RTY181C mutant gene to EC50 for antiviral activity against wild-type HIV1 3B; type: functional
[6] = tested on: Human immunodeficiency virus 1; test: Selectivity ratio of EC50 for antiviral activity against NRTI-resistant HIV1 harboring RTK65R mutant gene to EC50 for antiviral activity against wild-type HIV1 3B; type: functional
[7] = tested on: Human immunodeficiency virus 1; test: Selectivity ratio of EC50 for antiviral activity against HIV1 harboring E92V mutation in catalytic core domain of integrase to EC50 for antiviral activity against wild-type HIV1 3B; type: functional
[8] = tested on: Human immunodeficiency virus 1; test: Selectivity ratio of EC50 for antiviral activity against HIV1 harboring G140S mutation in catalytic core domain of integrase to EC50 for antiviral activity against wild-type HIV1 3B; type: functional
[9] = tested on: Human immunodeficiency virus 1; test: Selectivity ratio of EC50 for antiviral activity against HIV1 harboring E138K and Q148K mutation in catalytic core domain of integrase to EC50 for antiviral activity against wild-type HIV1 3B; type: functional
[10] = tested on: Human immunodeficiency virus 1; test: Selectivity ratio of EC50 for antiviral activity against PI-resistant HIV1 harboring […], L90M mutant gene to EC50 for antiviral activity against wild-type HIV1 3B; type: functional
[11] = tested on: Human immunodeficiency virus 1; test: Selectivity ratio of EC50 for antiviral activity against HIV1 harboring L74M and E92V mutation in catalytic core domain of integrase to EC50 for antiviral activity against wild-type HIV1 3B; type: functional
[12] = tested on: Human immunodeficiency virus 1; test: Selectivity ratio of EC50 for antiviral activity against HIV1 harboring E92V and V151A mutation in catalytic core domain of integrase to EC50 for antiviral activity against wild-type HIV1 3B; type: functional
[13] = tested on: Human immunodeficiency virus 1; test: Selectivity ratio of EC50 for antiviral activity against HIV1 harboring E138K mutation in catalytic core domain of integrase to EC50 for antiviral activity against wild-type HIV1 3B; type: functional
[14] = tested on: Human immunodeficiency virus 1; test: Selectivity ratio of EC50 for antiviral activity against HIV1 harboring N155H mutation in catalytic core domain of integrase to EC50 for antiviral activity against wild-type HIV1 3B; type: functional
[15] = tested on: Human immunodeficiency virus 1; test: Selectivity ratio of EC50 for antiviral activity against HIV1 harboring V151A mutation in catalytic core domain of integrase to EC50 for antiviral activity against wild-type HIV1 3B; type: functional
[16] = tested on: Human immunodeficiency virus 1; test: Selectivity ratio of EC50 for antiviral activity against NNRTI-resistant HIV1 harboring RTK103N mutant gene to EC50 for antiviral activity against wild-type HIV1 3B; type: functional
[17] = tested on: Human immunodeficiency virus 1; test: Selectivity ratio of EC50 for antiviral activity against HIV1 harboring T66I mutation in catalytic core domain of integrase to EC50 for antiviral activity against wild-type HIV1 3B; type: functional
[18] = tested on: Human immunodeficiency virus 1; test: Selectivity ratio of EC50 for antiviral activity against HIV1 harboring L74M mutation in catalytic core domain of integrase to EC50 for antiviral activity against wild-type HIV1 3B; type: functional
[19] = tested on: Human immunodeficiency virus 1; test: Selectivity ratio of EC50 for antiviral activity against NRTI-resistant HIV1 harboring RTM184V mutant gene to EC50 for antiviral activity against wild-type HIV1 3B; type: functional
[20] = tested on: Human immunodeficiency virus 1; test: Selectivity ratio of EC50 for antiviral activity against PI-resistant HIV1 harboring […], V82A and L90M mutant gene to EC50 for antiviral activity against wild-type HIV1 3B; type: functional
[21] = tested on: Human immunodeficiency virus 1; test: Selectivity ratio of EC50 for antiviral activity against HIV1 harboring Q148K mutation in catalytic core domain of integrase to EC50 for antiviral activity against wild-type HIV1 3B; type: functional
[22] = tested on: Human immunodeficiency virus 1; test: Selectivity ratio of EC50 for antiviral activity against HIV1 harboring G140S and Q148H mutation in catalytic core domain of integrase to EC50 for antiviral activity against wild-type HIV1 3B; type: functional
[23] = tested on: Human immunodeficiency virus 1; test: Selectivity ratio of EC50 for antiviral activity against NRTI-resistant HIV1 harboring RT-6TAMs mutant gene to EC50 for antiviral activity against wild-type HIV1 3B; type: functional
[24] = tested on: Human immunodeficiency virus 1; test: Selectivity ratio of EC50 for antiviral activity against HIV1 harboring E92V, G140S and V151A mutation in catalytic core domain of integrase to EC50 for antiviral activity against wild-type HIV1 3B; type: functional
[25] = tested on: Human immunodeficiency virus 1; test: Selectivity ratio of EC50 for antiviral activity against APV-resistant HIV1 selected after 4 passages to EC50 for antiviral activity against wild-type HIV1 3B; type: functional
[26] = tested on: Human immunodeficiency virus 1; test: Selectivity ratio of EC50 for antiviral activity against GS-9160-resistant HIV1 selected after 6 passages to EC50 for antiviral activity against wild-type HIV1 3B; type: functional
[27] = tested on: Human immunodeficiency virus 1; test: Selectivity ratio of EC50 for antiviral activity against 3TC-resistant HIV1 selected after 8 passages to EC50 for antiviral activity against wild-type HIV1 3B; type: functional
[28] = tested on: Human immunodeficiency virus 1; test: Selectivity ratio of EC50 for antiviral activity against EFV-resistant HIV1 selected after 7 passages to EC50 for antiviral activity against wild-type HIV1 3B; type: functional
[29] = tested on: Human immunodeficiency virus 1; test: Selectivity ratio of EC50 for antiviral activity against GS-9160-resistant HIV1 selected after 5 passages to EC50 for antiviral activity against wild-type HIV1 3B; type: functional
[30] = tested on: Human immunodeficiency virus 1; test: Selectivity ratio of EC50 for antiviral activity against APV-resistant HIV1 selected after 2 passages to EC50 for antiviral activity against wild-type HIV1 3B; type: functional
[31] = tested on: Human immunodeficiency virus 1; test: Selectivity ratio of EC50 for antiviral activity against 3TC-resistant HIV1 selected after 4 passages to EC50 for antiviral activity against wild-type HIV1 3B; type: functional
[32] = tested on: Human immunodeficiency virus 1; test: Selectivity ratio of EC50 for antiviral activity against GS-9160-resistant HIV1 selected after 9 passages to EC50 for antiviral activity against wild-type HIV1 3B; type: functional
[33] = tested on: Human immunodeficiency virus 1; test: Selectivity ratio of EC50 for antiviral activity against EFV-resistant HIV1 selected after 3 passages to EC50 for antiviral activity against wild-type HIV1 3B; type: functional
[34] = tested on: Human immunodeficiency virus 1; test: Selectivity ratio of EC50 for antiviral activity against GS-9160-resistant HIV1 selected after 8 passages to EC50 for antiviral activity against wild-type HIV1 3B; type: functional

SMILES	EC50 [1] [nM]	Ratio EC50 [3]	Ratio EC50 [4]	Ratio EC50 [5]	Ratio EC50 [6]	Ratio EC50 [7]	Ratio EC50 [8]	Ratio EC50 [9]	Ratio EC50 [10]	Ratio EC50 [11]	Ratio EC50 [12]	Ratio EC50 [13]	Ratio EC50 [14]	Ratio EC50 [15]	Ratio EC50 [16]	Ratio EC50 [17]	Ratio EC50 [18]	Ratio EC50 [19]	Ratio EC50 [20]	Ratio EC50 [21]	further results
O=C1Nc2ccc(Cl)cc2[C@@](C#CC2CC2)(C(F)(F)F)O1 [EFAVIRENZ]	6.8	–	–	–	–	–	–	–	–	–	–	–	–	–	–	–	–	–	–	–	CC50 [2]: 15500 nM
Nc1nc(=O)n([C@@H]2CS[C@H](CO)O2)cc1F [EMTRICITABINE]	323	2	3	0.4	26	1	1	2	1	2	4	1	2	3	1	1	1	>55	1	2	Ratio EC50 [22]: 0.8; Ratio EC50 [23]: 23; Ratio EC50 [24]: 2
Nc1ccn([C@@H]2CS[C@H](CO)O2)c(=O)n1 [LAMIVUDINE]	–	–	–	–	–	–	–	–	–	–	–	–	–	–	–	–	–	–	–	–	Ratio EC50 [25]: 9; Ratio EC50 [26]: 4.5; Ratio EC50 [27]: >272; Ratio EC50 [28]: 1; Ratio EC50 [29]: 1.8; Ratio EC50 [30]: 7; Ratio EC50 [31]: >272; Ratio EC50 [32]: 1.4; Ratio EC50 [33]: 2; Ratio EC50 [34]: 5.7
Cc1cccc(C)c1OCC(=O)N[C@@H](Cc1ccccc1)[C@@H](O)C[C@H](Cc1ccccc1)NC(=O)[C@H](C(C)C)N1CCCNC1=O [LOPINAVIR]	4.8	1	2	1	3	1	1	1	29	1	1	1	2	1	1	4	1	3	9	1	Ratio EC50 [22]: 1; Ratio EC50 [23]: 5; Ratio EC50 [24]: 2
CC(C)OC(=O)OCOP(=O)(CO[C@H](C)Cn1cnc2c(N)ncnc21)OCOC(=O)OC(C)C.O=C(O)/C=C/C(=O)O [TENOFOVIR DISOPROXIL FUMARATE]	6.8	1	2	1	4	2	1	2	1	1	2	2	2	2	1	1	1	1	1	1	Ratio EC50 [22]: 0.3; Ratio EC50 [23]: 9; Ratio EC50 [24]: 2
